Results: ChEMBL document CHEMBL3885881, “DrugMatrix”

Species on record: Rattus norvegicus
Assay: DrugMatrix - Regimen: Daily Repeat
Format: toxicity, organism-based, Sprague-Dawley
Parameters: regimen Daily Repeat, gender Male, age 6-8 weeks
Conditions: in vivo, po, route oral GAVAGE, vehicle .5 % CMC; for ABSOLUTE BASOPHIL / ABSOLUTE EOSINOPHIL / ABSOLUTE LYMPHOCYTE / ABSOLUTE MONOCYTE / ABSOLUTE SEGMENTED NEUTROPHIL / BASOPHIL / EOSINOPHIL / ERYTHROCYTE COUNT / HEMATOCRIT / HEMOGLOBIN / LEUKOCYTE COUNT / LYMPHOCYTE / MEAN CORPUSCULAR HEMOGLOBIN / MEAN CORPUSCULAR HEMOGLOBIN CONCENTRATION / MEAN CORPUSCULAR VOLUME / MONOCYTE / NEUTROPHIL / NUCLEATED RED BLOOD CELLS / PLATELET COUNT: tissue Blood; for ALANINE AMINOTRANSFERASE / ALBUMIN / ALKALINE PHOSPHATASE / ASPARTATE AMINOTRANSFERASE / BLOOD UREA NITROGEN / CARBON DIOXIDE / CHLORIDE / CHOLESTEROL / CREATINE PHOSPHOKINASE / CREATININE / GLUCOSE / LACTATE DEHYDROGENASE / LIPASE / PHOSPHORUS / POTASSIUM / SODIUM / TOTAL BILIRUBIN / TOTAL PROTEIN / URIC ACID: tissue Plasma
[1] = 2 mg/kg, 72 h, dose level Low, time 3 day
[2] = 2 mg/kg, 120 h, dose level Low, time 5 day
[3] = 83 mg/kg, 72 h, dose level High, time 3 day
[4] = 83 mg/kg, 120 h, dose level High, time 5 day

## Nc1cc(N2CCCCC2)nc(N)[n+]1[O-] [MINOXIDIL]
[1]
  ABSOLUTE BASOPHIL: 0 CELLS/uL
  ABSOLUTE EOSINOPHIL: 0 CELLS/uL
  ABSOLUTE LYMPHOCYTE: 9089 CELLS/uL
  ABSOLUTE MONOCYTE: 42.33 CELLS/uL
  ABSOLUTE SEGMENTED NEUTROPHIL: 735.33 CELLS/uL
  BASOPHIL: 0%
  EOSINOPHIL: 0%
  ERYTHROCYTE COUNT: 4.78 x10E6/uL
  HEMATOCRIT: 30.6%
  HEMOGLOBIN: 12.57 G/DL
  LEUKOCYTE COUNT: 9.87 x10E3/uL
  LYMPHOCYTE: 92%
  MEAN CORPUSCULAR HEMOGLOBIN: 26.3 pg
  MEAN CORPUSCULAR HEMOGLOBIN CONCENTRATION: 41.1 G/DL
  MEAN CORPUSCULAR VOLUME: 64.07 fL
  MONOCYTE: 0.33%
  NEUTROPHIL: 7.67%
  NUCLEATED RED BLOOD CELLS: 0 /100WBC
  PLATELET COUNT: 1041 x10E3/uL
  ALANINE AMINOTRANSFERASE: 50.33 u/L
  ALBUMIN: 4.3 G/DL
  ALKALINE PHOSPHATASE: 415 u/L
  ASPARTATE AMINOTRANSFERASE: 94.33 u/L
  BLOOD UREA NITROGEN: 18 mg/dL
  CARBON DIOXIDE: 35.33 mmol/L
  CHLORIDE: 100.67 MEQ/L
  CHOLESTEROL: 74.67 mg/dL
  CREATINE PHOSPHOKINASE: 368.67 u/L
  CREATININE: 0.23 mg/dL
  GLUCOSE: 127.67 mg/dL
  LACTATE DEHYDROGENASE: 159 u/L
  LIPASE: 10 u/L
  PHOSPHORUS: 11.3 mg/dL
  POTASSIUM: 6.23 MEQ/L
  SODIUM: 147.5 MEQ/L
  TOTAL BILIRUBIN: 0.1 mg/dL
  TOTAL PROTEIN: 6.03 G/DL
  URIC ACID: 0.93 mg/dL
[2]
  ABSOLUTE BASOPHIL: 0 CELLS/uL
  ABSOLUTE EOSINOPHIL: 0 CELLS/uL
  ABSOLUTE LYMPHOCYTE: 14468 CELLS/uL
  ABSOLUTE MONOCYTE: 213.67 CELLS/uL
  ABSOLUTE SEGMENTED NEUTROPHIL: 818.33 CELLS/uL
  BASOPHIL: 0%
  EOSINOPHIL: 0%
  ERYTHROCYTE COUNT: 5.34 x10E6/uL
  HEMATOCRIT: 33.6%
  HEMOGLOBIN: 13.27 G/DL
  LEUKOCYTE COUNT: 15.5 x10E3/uL
  LYMPHOCYTE: 93.33%
  MEAN CORPUSCULAR HEMOGLOBIN: 24.8 pg
  MEAN CORPUSCULAR HEMOGLOBIN CONCENTRATION: 39.47 G/DL
  MEAN CORPUSCULAR VOLUME: 62.9 fL
  MONOCYTE: 1.33%
  NEUTROPHIL: 5.33%
  NUCLEATED RED BLOOD CELLS: 0 /100WBC
  PLATELET COUNT: 1308.33 x10E3/uL
  ALANINE AMINOTRANSFERASE: 52 u/L
  ALBUMIN: 4.33 G/DL
  ALKALINE PHOSPHATASE: 362.67 u/L
  ASPARTATE AMINOTRANSFERASE: 78.67 u/L
  BLOOD UREA NITROGEN: 18 mg/dL
  CARBON DIOXIDE: 33 mmol/L
  CHLORIDE: 102 MEQ/L
  CHOLESTEROL: 75.33 mg/dL
  CREATINE PHOSPHOKINASE: 156.33 u/L
  CREATININE: 0.2 mg/dL
  GLUCOSE: 153 mg/dL
  LACTATE DEHYDROGENASE: 135.67 u/L
  LIPASE: 8.67 u/L
  PHOSPHORUS: 14.1 mg/dL
  POTASSIUM: 6.87 MEQ/L
  SODIUM: 146.73 MEQ/L
  TOTAL BILIRUBIN: 0.27 mg/dL
  TOTAL PROTEIN: 6.27 G/DL
  URIC ACID: 1.43 mg/dL
[3]
  ABSOLUTE BASOPHIL: 0 CELLS/uL
  ABSOLUTE EOSINOPHIL: 0 CELLS/uL
  ABSOLUTE LYMPHOCYTE: 11593 CELLS/uL
  ABSOLUTE MONOCYTE: 0 CELLS/uL
  ABSOLUTE SEGMENTED NEUTROPHIL: 1707 CELLS/uL
  BASOPHIL: 0%
  EOSINOPHIL: 0%
  ERYTHROCYTE COUNT: 4.83 x10E6/uL
  HEMATOCRIT: 30.37%
  HEMOGLOBIN: 12.7 G/DL
  LEUKOCYTE COUNT: 13.3 x10E3/uL
  LYMPHOCYTE: 87.67%
  MEAN CORPUSCULAR HEMOGLOBIN: 26.3 pg
  MEAN CORPUSCULAR HEMOGLOBIN CONCENTRATION: 41.83 G/DL
  MEAN CORPUSCULAR VOLUME: 62.8 fL
  MONOCYTE: 0%
  NEUTROPHIL: 12.33%
  NUCLEATED RED BLOOD CELLS: 0 /100WBC
  PLATELET COUNT: 1119.33 x10E3/uL
  ALANINE AMINOTRANSFERASE: 40.33 u/L
  ALBUMIN: 4.27 G/DL
  ALKALINE PHOSPHATASE: 346.33 u/L
  ASPARTATE AMINOTRANSFERASE: 73.67 u/L
  BLOOD UREA NITROGEN: 18.33 mg/dL
  CARBON DIOXIDE: 30.33 mmol/L
  CHLORIDE: 103.33 MEQ/L
  CHOLESTEROL: 70.33 mg/dL
  CREATINE PHOSPHOKINASE: 164 u/L
  CREATININE: 0.15 mg/dL
  GLUCOSE: 140 mg/dL
  LACTATE DEHYDROGENASE: 144 u/L
  LIPASE: 9.33 u/L
  PHOSPHORUS: 12.47 mg/dL
  POTASSIUM: 6.31 MEQ/L
  SODIUM: 145.1 MEQ/L
  TOTAL BILIRUBIN: 0.17 mg/dL
  TOTAL PROTEIN: 5.67 G/DL
  URIC ACID: 1.33 mg/dL
[4]
  ABSOLUTE BASOPHIL: 0 CELLS/uL
  ABSOLUTE EOSINOPHIL: 0 CELLS/uL
  ABSOLUTE LYMPHOCYTE: 12306 CELLS/uL
  ABSOLUTE MONOCYTE: 270 CELLS/uL
  ABSOLUTE SEGMENTED NEUTROPHIL: 990.67 CELLS/uL
  BASOPHIL: 0%
  EOSINOPHIL: 0%
  ERYTHROCYTE COUNT: 5.12 x10E6/uL
  HEMATOCRIT: 32.97%
  HEMOGLOBIN: 13.17 G/DL
  LEUKOCYTE COUNT: 13.57 x10E3/uL
  LYMPHOCYTE: 90.67%
  MEAN CORPUSCULAR HEMOGLOBIN: 25.77 pg
  MEAN CORPUSCULAR HEMOGLOBIN CONCENTRATION: 39.93 G/DL
  MEAN CORPUSCULAR VOLUME: 64.53 fL
  MONOCYTE: 2%
  NEUTROPHIL: 7.33%
  NUCLEATED RED BLOOD CELLS: 0.33 /100WBC
  PLATELET COUNT: 1460 x10E3/uL
  ALANINE AMINOTRANSFERASE: 52.33 u/L
  ALBUMIN: 4.33 G/DL
  ALKALINE PHOSPHATASE: 352.67 u/L
  ASPARTATE AMINOTRANSFERASE: 78.67 u/L
  BLOOD UREA NITROGEN: 18 mg/dL
  CARBON DIOXIDE: 34.67 mmol/L
  CHLORIDE: 100.67 MEQ/L
  CHOLESTEROL: 77.33 mg/dL
  CREATINE PHOSPHOKINASE: 322.67 u/L
  CREATININE: 0.29 mg/dL
  GLUCOSE: 137 mg/dL
  LACTATE DEHYDROGENASE: 304 u/L
  LIPASE: 11 u/L
  PHOSPHORUS: 11.17 mg/dL
  POTASSIUM: 6.32 MEQ/L
  SODIUM: 143.43 MEQ/L
  TOTAL BILIRUBIN: 0.23 mg/dL
  TOTAL PROTEIN: 5.9 G/DL
  URIC ACID: 1.43 mg/dL
